# Measured values published in US5698563A, “Bis-[hydrazones]” (Alteon Inc., priority 1995, dated 1997).
# Structures can show the parent of a compound that is named as a salt.
# Tested on: cross-linking of glycated bovine serum albumin (AGE-BSA) to the rat tail tendon collagen
# Assay: Inhibition of cross-linking of glycated bovine serum albumin (AGE-BSA) to rat tail tendon collagen coated 96-well plate (ELISA)
# Assay type: biochemical
# Conditions: 4 h, pH 7.4
# Method: The following method was used to evaluate the ability of the compounds of the present invention to inhibit the cross-linking of glycated bovine serum albumin (AGE-BSA) to the rat tail tendon collagen coated 96-well plate.
# The AGE-BSA was prepared by incubating BSA at a concentration of 200 mg per ml with 200 mM glucose in 0.4M sodium phosphate buffer, pH 7.4 at 37° C. for 12 weeks. The glycated BSA was then extensively dialyzed against phosphate buffer solution (PAS) for 48 hours with additional 5 times buffer exchanges. The rat tail tendon collagen coated plate was blocked first with 300 μl of superbloc blocking buffer (Pierce #37515X) for one hour. The blocking solution was removed from the wells by washing the plate twice with PAS-Tween 20 solution (0.05% Tween 20) using a NUNC-multiprobe or Dynatech ELISA-plate washer. Cross-linking of AGE-BSA (1 to 10 μg per well depending on the batch of AGE-BSA) to rat tail tendon collagen coated plate was performed with and without the testing compound dissolved in PAS buffer at pH 7.4 at the desired concentrations by the addition of 50 μl each of the AGE-BSA diluted in PAS or in the testing compound at 37° C. for 4 hours. The unbrowned BSA in PAS buffer with or without testing compound were added to the separate wells as the blanks. The un-cross-linked AGE-BSA was then removed by washing the wells three times with PAS-Tween buffer. The cross-linked AGE-BSA to the tail tendon coated plate was then quantitated by the polyclonal antibody raised against AGE-RNase. After a one-hour incubation period, AGE antibody was removed by washing 4 times with PAS-Tween.
# The bound AGE antibody was then detected with the addition of horseradish peroxidase-conjugated secondary antibody, e.g., goat anti-rabbit immunoglobulin and incubation for 30 minutes. The substrate of 2,2-azino-di(3-ethylbenzthiazoline sulfonic acid) (ABTS chromogen) (Zymed #00-2011) was added. The reaction was allowed for an additional 15 minutes and the absorbance was read at 410 nm in a Dynatech plate reader.
# The % inhibition of each test compound was calculated as follows.
# % inhibition={[Optical density (without compound)-optical density (with
# compound)]/optical density (without compound)]}100%
# The IC50 relative inhibition by various test compounds at 10 Mm is as follows: […]
row,IC50,Compound
1,10 µM,"C1CCC(=NNC2=NCCN2)C(=NNC2=NCCN2)C1 [1,2-cyclohexanedione bis(2-hydrazino-2-imidazoline hydrazone)dihydrobromidedihydrate]"
2,6.7 µM,"C1CN=C(NN=C2CCCCC2=NNC2=NCCCN2)NC1 [1,2-cyclohexanedione bis(2-tetrahydropyrimidine)hydrazone dihydrobromide]"
3,20 µM,"C1=CC(=NNC2=NCCN2)C=CC1=NNC1=NCCN1 [1,4-benzoquinone bis(2-hydrazino-2-imidazoline hydrazone) dihydrobromide]"
4,100 µM,"C1CNC(NN=C2CCC(=NNC3=NCCN3)CC2)=N1 [1,4-cyclohexane dione bis(2-hydrazino-2-imidazoline hydrazone]dihydrobromide dihydrate]"
5,4.1 µM,"CC(=NNC1=NCCCN1)C(C)=NNC1=NCCCN1 [2,3-butanedione bis(2-tetrahydropyrimidine)hydrazone dihydrobromide]"
6,33 µM,"CCCC(=NNC1=NCCCN1)C(C)=NNC1=NCCCN1 [2,3-hexanedione bis(2-tetrahydropyrimidine)hydrazone dihydrobromide]"
7,30 µM,"C(=NNC1=NCCN1)c1cc2ccccc2cc1C=NNC1=NCCN1 [2,3-naphthalene dialdehyde bis(2-hydrazino-2-imidazoline hydrazone)dihydrobromide dihydrate]"
8,40 µM,"CC(CC(C)=NNC1=NCCN1)=NNC1=NCCN1 [2,4-pentanedione bis(2-hydrazino-2-imidazoline hydrazone)dihydrobromide]"
9,20 µM,c1coc(C(=NNC2=NCCN2)C(=NNC2=NCCN2)c2ccco2)c1 [furyl bis (2-hydrazino-2-imidazoline hydrazone) dihydrobromide]
10,310 µM,N=C(N)NN=CC(=NNC(=N)N)c1ccco1 [furyl glyoxal bis (guanyl hydrazone)dihydrochloride dihydrate]
11,120 ± 100 µM,C(=NNC1=NCCN1)C(=NNC1=NCCN1)c1ccco1 [furyl glyoxal bis(2-hydrazino-2-imidazoline hydrazone) dihydrobromide dihydrate]
12,20 µM,"OCCN1CCCN=C1NN=CC(=NNC1=NCCCN1CCO)c1ccco1 [furyl glyoxal bis[1-(2-hydroxyethyl)-2-hydrazino-1,4,5,6-tetrahydropyrimidine hydrazone]dimethanesulfonate dihydrate]"
13,920 ± 260 µM,OCCN1CCN=C1NN=CC(=NNC1=NCCN1CCO)c1ccco1 [furyl glyoxal bis[1-(2-hydroxyethyl)-2-hydrazino-2-imidazoline hydrazone]dimethanesulfonate monohydrate]
14,840 ± 120 µM,"CC(C=NNC1=NCCCN1)=NNC1=NCCCN1 [methyl glyoxal bis(2-hydrazino-1,4,5,6-tetrahydropyrimidine hydrazone)dihydrobromide]"
15,2040 ± 50 µM,CC(C=NNC1=NCCN1)=NNC1=NCCN1 [methyl glyoxal bis(2-hydrazino-2-imidazoline hydrazone) dihydrobromide]
16,170 ± 110 µM,"CC(C=NNC1=NCCCN1CCO)=NNC1=NCCCN1CCO [methyl glyoxal bis[1-(2-hydroxyethyl)-2-hydrazino-1,4,5,6-tetrahydropyrimidine hydrazone]dimethanesulfonate]"
17,320 ± 70 µM,CC(C=NNC1=NCCN1CCO)=NNC1=NCCN1CCO [methyl glyoxal bis[1-(2-hydroxyethyl)-2-hydrazino-2-imidazoline hydrazone]dimethanesulfonate]
18,220 ± 50 µM,CC(C=NNC(=N)NCCCN(C)C)=NNC(=N)NCCCN(C)C [methyl glyoxal bis[N-3-dimethylaminopropyl)hydrazinecarboximidamide hydrazone]tetrahydrobromide]
19,440 ± 60 µM,"CC(C=NNC(=N)NCC(C)(C)CN(C)C)=NNC(=N)NCC(C)(C)CN(C)C [methyl glyoxal bis[N-(2,2-dimethyl-3-dimethylaminopropyl)hydrazinecarboximidamide hydrazone]tetrahydrobromide]"
20,120 µM,"CCc1nnc(NN=CC(C)=NNc2nnc(CC)n2N)n1N [methyl glyoxal-bis-(4-amino-3-hydrazino-5-ethyl-1,2,4-triazole)hydrazone dihydrochloride]"
21,110 µM,"CC(C=NNc1nnc(C(C)C)n1N)=NNc1nnc(C(C)C)n1N [methyl glyoxal-bis-(4-amino-3-hydrazino-5-isopropyl-1,2,4-triazole)hydrazone dihydrochloride]"
22,2200 ± 130 µM,CC(C=NNC(=N)NCCN1CCOCC1)=NNC(=N)NCCN1CCOCC1 [methylglyoxal bis{N-[2-(4-morpholino)ethyl]hydrazinecarboximidamide hydrazone}tetrahydrobromide]
23,430 ± 80 µM,C(=NNC1=NCCN1)c1ccccc1C=NNC1=NCCN1 [o-phthalicdicarboxaldehyde bis(2-hydrazino-2-imidazoline hydrazone)dihydrobromide monohydrate]
24,340 ± 190 µM,N=C(N)NN=CC(=NNC(=N)N)c1ccccc1 [phenyl glyoxal bis(guanylhydrazone)dihydrochloride]
25,70 ± 100 µM,"OCCN1CCCN=C1NN=CC(=NNC1=NCCCN1CCO)c1ccccc1 [phenyl glyoxal bis[1-(2-hydroxyethyl)-2-hydrazino-1,4,5,6-tetrahydropyrimidine hydrazone]dimethanesulfonate dihydrate]"
26,90 ± 130 µM,OCCN1CCN=C1NN=CC(=NNC1=NCCN1CCO)c1ccccc1 [phenyl glyoxal bis[1-(2-hydroxyethyl)-2-hydrazino-2-imidazoline hydrazone]dimethanesulfonate dihydrate]

# Tested on: gelatin, i.e., collagen
# Assay: Surface browning experiment: gelatin/paper disks in glucose-6-phosphate
# Conditions: Peridex at a final concentration of 0.04% chlorhexidine; 100 Mm glucose-6-phosphate, one week at 50° C., pH 7.4
# Method: To further study the ability of inhibitors of nonenzymatic browning to prevent the discoloration of protein on a surface, such as that which occurs on the tooth surface, the following surface browning experiment is performed. As a substitute for a pellicle-covered tooth surface, unexposed and developed photographic paper is used to provide a fixed protein (gelatin, i.e., collagen) surface on a paper backing. Five millimeter circles are punched and immersed for one week at 50° C. in a solution of 100 Mm glucose-6-phosphate in a 0.5M phosphate buffer, Ph 7.4, containing 3 Mm sodium azide. Glucose-6-phosphate is a sugar capable of participating in nonenzymatic browning at a more rapid rate than glucose. In addition to the glucose-6-phosphate, chlorhexidine and/or a compound of Formula I are included. After incubation, the gelatin/paper disks are rinsed with water, observed for brown color, and photographed.
row,Compound,browning of gelatin disks with chlorhexidine
1,[H]/N=C(\N/C(=N/[H])NCCCCCCNC(=N)NC(=N)Nc1ccc(Cl)cc1)Nc1ccc(Cl)cc1 [chlorhexidine],significant browning

# Tested on: aortic wall protein cross-linking
# Assay: not given
# Conditions: diabetic rats; cited from earlier work
row,Compound,aortic wall protein cross-linking
1,N=C(N)NN [aminoguanidine],diminishes aortic wall protein cross-linking

# Tested on: immunoglobulin trapping in the kidney
# Assay: not given
# Conditions: Brownlee et al., Diabetes 1986; cited from earlier work
row,Compound,immunoglobulin trapping in the kidney
1,N=C(N)NN [aminoguanidine],reduction of immunoglobulin trapping in the kidney

# Tested on: glomerular basement membrane
# Assay: not given
# Conditions: streptozotocin-diabetic rat; Brownlee et al., 1988; cited from earlier work
row,Compound,intervention in the development of diabetic nephropathy
1,N=C(N)NN [aminoguanidine],intervenes in the development of diabetic nephropathy

# Tested on: red blood cells
# Assay: not given
# Conditions: in vivo, diabetic rabbits; 100 mg/kg by oral gavage; cited from earlier work
row,Compound,diabetes-induced changes in the deformability of red blood cells
1,N=C(N)NN [aminoguanidine],has been shown to prevent it in vivo

# Tested on: Maillard reaction
# Assay: not given
# Conditions: Nordbo, J. Dent. Res., 1979; cited from earlier work
row,Compound,catalysis of browning reactions in vitro
1,[H]/N=C(\N/C(=N/[H])NCCCCCCNC(=N)NC(=N)Nc1ccc(Cl)cc1)Nc1ccc(Cl)cc1 [chlorhexidine],catalyze browning reactions in vitro
2,benzalkonium chloride,catalyze browning reactions in vitro

# Same assay, conditions: attributed to the Maillard reaction; cited from earlier work
row,Compound,color formation in mixtures containing a sugar derivative and a source of amino groups
1,[H]/N=C(\N/C(=N/[H])NCCCCCCNC(=N)NC(=N)Nc1ccc(Cl)cc1)Nc1ccc(Cl)cc1 [chlorhexidine],increased color formation

# Tested on: dental pellicle
# Assay: not given
# Conditions: use of chlorhexidine; cited from earlier work
row,Compound,dental pellicle
1,[H]/N=C(\N/C(=N/[H])NCCCCCCNC(=N)NC(=N)Nc1ccc(Cl)cc1)Nc1ccc(Cl)cc1 [chlorhexidine],increased dental pellicle

# Tested on: RNAase
# Assay: not given
# Conditions: free lysine; Eble et al., 1983; cited from earlier work
row,Compound,competition with lysine on RNAase for binding of glycosylated protein
1,NCCCC[C@H](N)C(=O)O [lysine],would compete with the lysine on RNAase for the binding of glycosylated protein
